Data as given in patent publication US20260206761A1, “HETEROARYL-TRIAZOLE COMPOUNDS AS PESTICIDES” (Bayer Aktiengesellschaft, priority 2019, published 2026).

Assays:
Assay type in all cases: in vivo
[1] = test system: larvae of the banded cucumber beetle (Diabrotica balteata); experiment: Diabrotica balteata spray test; settings: 168 h, after 7 days, read-out: activity (efficacy: seedlings grown); for pest or weed control at 100 g/ha: application rate 100 g/ha (=32 pg/well); for pest or weed control at 500 g/ha: application rate 500 g/ha (=160 pg/well)
Method in brief: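 Wheat seedlings, germinated 1 day on agar (5 seeds/well), sprayed with active compound in acetone/DMF diluted in water containing 1000 ppm emulsifier, then infested with 10-20 D. balteata larvae. Efficacy (%) scored after 7 days: 100% = seedlings grown as untreated uninfested control, 0% = no seedlings grown.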

[2] = test system: green peach aphid (Myzus persicae); experiment: Myzus persicae spray test; settings: 120 h, after 5 days; for mortality at 500 g/ha: application rate 500 g/ha
Protocol: Myzus persicae—Spray Test
Solvent: 78.0 parts by weight acetone • 1.5 parts by weight dimethylformamide
Emulsifier: alkylarylpolyglycol ether
To produce a suitable preparation of active compound, 1 part by weight of active compound is mixed with the stated amount of solvents and is diluted with water, containing an emulsifier concentration of 1000 ppm, to the desired concentration. Further test concentrations are prepared by dilution with emulsifier containing water.
Chinese cabbage (Brassica pekinensis) leaf disks infected with all instars of the green peach aphid (Myzus persicae), are sprayed with a preparation of the active ingredient of the desired concentration.
After 5 days mortality in % is determined. 100% means all aphids have been killed and 0% means none of the aphids have been killed.

[3] = test system: green peach aphid (Myzus persicae); experiment: Myzus persicae oral test; settings: 120 h, application rate 4 ppm, after 5 days
Method in brief: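 Oral uptake format: water-diluted acetone concentrate of compound is blended into IPL41 medium carrying 33%+15% sugar and offered under a parafilm membrane. Percentage of dead insects is recorded after 5 days.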

[4] = test system: adult unfed cat fleas (Ctenocephalides felis); experiment: Ctenocephalides felis oral test; settings: 48 h, read-out: activity (mortality)
Method in brief: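 About 20 adult unfed fleas fed through parafilm on cattle blood containing compound (DMSO stock diluted in blood), blood held at 37 °C and fleas at room temperature. Mortality (%) scored after 2 days.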

[5] = test system: larvae of the southern green stink bug (Nezara viridula); experiment: Nezara viridula spray test; settings: 96 h, after 4 days; for mortality at 100 g/ha: application rate 100 g/ha; for mortality at 500 g/ha: application rate 500 g/ha
Method in brief: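 Compound in acetone/dimethylformamide, diluted in water with 1000 ppm alkylarylpolyglycol ether emulsifier, sprayed onto barley plants carrying stink bug larvae. Mortality (%) scored after 4 days, 100% meaning all insects killed.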

[6] = test system: Aedes aegypti strain MONHEIM; experiment: Aedes aegypti test (AEDSAE surface treatment & contact assay); settings: 24 hours after contact, read-out: efficacy (mortality); for mortality at 4 mg/m2: surface concentration 4 mg/m^2, exposure 30 minutes
Protocol: Aedes aegypti Test (AEDSAE Surface Treatment & Contact Assay)
Solvent: Aceton+2000 ppm rapeseed oil methyl ester (RME)
In order to produce a sufficient, active ingredient containing solution it is necessary to solve the test compound in the solvent-mix (acetone at 2 mg/ml/RME 2000 ppm). This solution is pipetted onto a glazed tile and after evaporation of the acetone, adult mosquitoes of the species Aedes aegypti strain MONHEIM are placed onto the dried surface. The exposure time is 30 minutes. Mortality in percent (%) is determined 24 hours after contact of the insects to the treated surface. 100% mortality means that all tested insects are dead, whereas 0% means that no insect died.

[7] = test system: adult engorged female ticks (Rhipicephalus microplus); experiment: Rhipicephalus (Boophilus) microplus injection test; settings: 168 h, egg deposition after 7 days, read-out: activity (efficacy: infertile eggs); for pest or weed control at 4 pg: application rate 4 pg/animal; for pest or weed control at 0.02 mg: application rate 20 μg/animal
Method in brief: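 Efficacy is scored from egg fertility, with 100% meaning every egg infertile and 0% every egg fertile. Five engorged females per test received 1 μL DMSO solution abdominally. Eggs of unclear fertility were kept until hatching, about 42 days.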

[8] = test system: adult cat fleas (Ctenocephalides felis); experiment: Ctenocephalides felis in-vitro contact test, adult cat flea; settings: application rate 5 μg/cm^2 (=500 g/ha), after 48 hours, read-out: activity (efficacy: fleas dead or moribund)
Protocol: Ctenocephalides felis—In-Vitro Contact Tests Adult Cat Flea
9 mg compound is solved in 1 mL acetone and diluted with acetone to the desired concentration. 250 μL of the test solution is filled in 25 mL glass test tubes and homogeneously distributed on the inner walls by rotation and tilting on a shaking device (2 h at 30 rpm). With a compound concentration of 900 ppm, an inner surface of 44.7 cm^2 and a homogeneous distribution, a dose of […] is achieved.
After the solvent has evaporated, each test tube is filled with 5-10 adult cat fleas (Ctenocephalides felis), closed with a perforated lid and incubated in a lying position at room temperature and relative humidity. After 48 hours efficacy is determined. The fleas are patted on the ground of the tubes and are incubated on a heating plate at 45-50° C. for at most 5 minutes. Immotile or uncoordinated moving fleas, which are not able to escape the heat by climbing upwards, are marked as dead or moribund.
An efficacy of 100% means all fleas are dead or moribund; 0% means no fleas are dead or moribund.

[9] = test system: fall armyworm larvae (Spodoptera frugiperda); experiment: Spodoptera frugiperda spray test; settings: 168 h, read-out: activity (mortality)
Method in brief: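 Compound in acetone/DMF, diluted in water with 1000 ppm alkylarylpolyglycol ether emulsifier, sprayed on maize leaf sections. Dried leaves infested with fall armyworm larvae; % mortality after 7 days (100% = all killed, 0% = none).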

[10] = test system: Rhipicephalus microplus larvae (strain Parkhurst, resistant against synthetic pyrethroids); experiment: Rhipicephalus (Boophilus) microplus in-vitro contact test, larval cattle tick; settings: after 48 hours, read-out: activity (efficacy: larvae dead or moribund); for pest or weed control at 100 g/ha: application rate 1 pg/cm^2 (=100 g/ha); for pest or weed control at 500 g/ha: application rate 5 pg/cm^2 (=500 g/ha)
Method in brief: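 Acetone solutions coated onto inner walls of glass tubes by rotation (900 ppm giving 5 μg/cm^2); after evaporation, 20-50 larvae added per tube and held at 27° C., 85% relative humidity. Efficacy read after 48 h from negative geotactic behaviour; 100% = all larvae dead or moribund.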

[11] = test system: adult brown dog ticks (Rhipicephalus sanguineus); experiment: Rhipicephalus sanguineus in-vitro contact test, adult brown dog ticks; settings: after 48 hours, read-out: activity (efficacy: ticks dead or moribund); for pest or weed control at 100 g/ha: application rate 1 pg/cm^2 (=100 g/ha); for pest or weed control at 5 µg/cm2, 500 g/ha: application rate 5 μg/cm^2 (=500 g/ha)
Method in brief: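 Compound in acetone was coated onto inner walls of glass tubes by rotation (2 h, 30 rpm); 900 ppm gives 5 μg/cm^2. After drying, 5-10 adult ticks were enclosed per tube at room temperature; after 48 h, heat-escape test at 45-50° C scored dead/moribund ticks as % efficacy.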

| SMILES | pest or weed control at 100 g/ha [1] [%] | pest or weed control at 500 g/ha [1] [%] | mortality at 500 g/ha [2] [%] | mortality at 4 ppm [3] [%] | mortality at 100 ppm [4] [%] | mortality at 100 g/ha [5] [%] | mortality at 500 g/ha [5] [%] | mortality at 4 mg/m2 [6] [%] | mortality at 20 mg/m2 ([6]; surface concentration 20 mg/m^2, exposure 30 minutes) [%] | pest or weed control at 4 pg [7] [%] | pest or weed control at 0.02 mg [7] [%] | pest or weed control at 5 µg/cm2 [8] [%] | mortality at 100 g/ha [9] [%] | pest or weed control at 100 g/ha [10] [%] | pest or weed control at 500 g/ha [10] [%] | mortality at 500 g/ha [9] [%] | pest or weed control at 100 g/ha [11] [%] | pest or weed control at 5 µg/cm2, 500 g/ha [11] [%] | mortality at 100 g/ha ([2]; application rate 100 g/ha) [%] |
| --- | --- | --- | --- | --- | --- | --- | --- | --- | --- | --- | --- | --- | --- | --- | --- | --- | --- | --- | --- |
| C[C@H](NC(=O)c1cc(Cl)cc(C2(C#N)CC2)c1)c1ncnn1-c1cc(C#N)ccn1 [II-4] | 100 | 100 | 90 | 100 | 100 | 100 | 100 | 80 to 100 | 80 to 100 | 100 | 100 | 80 | 83 |  |  |  |  |  |  |
| Cc1nc([C@H](C)NC(=O)c2cc(Cl)cc(S(=O)(=O)C(F)(F)F)c2)n(-c2ccc(C#N)cn2)n1 [II-15, 3-chloro-N-{(1S)-1-[1-(5-cyanopyridin-2-yl)-3-methyl-1H-1,2,4-triazol-5-yl]ethyl}-5-[(trifluoromethyl)sulfonyl]benzamide] | 100 | 100 | 90 | 100 | 100 |  | 100 |  |  | 100 | 100 | 90 | 100 | 100 | 100 | 100 |  |  |  |
| C[C@H](NC(=O)c1cc(C#N)cc(S(C)(=O)=O)c1)c1ncnn1-c1ccccn1 [II-31] | 100 | 100 |  | 100 | 100 | 100 | 100 |  |  | 100 | 100 | 100 |  |  |  | 83 | 100 |  |  |
| C[C@H](NC(=O)c1cc(Br)cc(S(C)(=O)=O)c1)c1ncnn1-c1ccc(Cl)cn1 [II-40] |  |  |  |  | 100 | 100 |  | 80 to 100 |  | 100 | 100 | 100 | 100 | 100 | 100 |  | 100 | 100 |  |
| C[C@H](NC(=O)c1cc(Cl)cc(S(C)(=O)=O)c1)c1ncnn1-c1ncc(I)cn1 [II-44] |  |  |  | 100 | 100 | 100 |  |  |  | 100 | 100 | 100 | 100 | 100 | 100 |  |  |  |  |
| Cc1nc([C@H](C)NC(=O)c2cc(C(F)F)cc(C3CC3)c2)n(-c2ccc(C#N)cn2)n1 [II-61] | 100 |  |  | 100 |  | 100 |  |  |  | 100 |  | 100 | 83 | 100 | 100 |  | 100 | 100 | 90 |
